Results: ChEMBL document CHEMBL2046394, “Isolation and characterization of α,β-unsaturated γ-lactono-hydrazides from Streptomyces sp” (J Nat Prod, 2012)
Active and inactive are the calls of the source. No cut-off for these calls is given here.

Key:
[1] = Cytotoxicity against human MDA231 cells assessed as growth inhibition after 72 hrs; assay type: functional, cell-based; conditions: MDA-MB-231, 72 h
Escherichia coli = test: Antibacterial activity against Escherichia coli ATCC 25922 by disk inhibition zone method; assay type: functional, organism-based
Bacillus subtilis = test: Antibacterial activity against Bacillus subtilis ATCC 6633 by disk inhibition zone method; assay type: functional, organism-based
Micrococcus luteus = test: Antibacterial activity against Micrococcus luteus ATCC 10240 by disk inhibition zone method; assay type: functional, organism-based
Caco-2 = test: Cytotoxicity against human Caco2 cells by MTT assay; assay type: functional, cell-based

Structure (SMILES) | IC50 [1] | Activity (Escherichia coli) | Activity (Bacillus subtilis) | Activity (Micrococcus luteus) | IC50 (Caco-2)
CCCC/C=C\N(NC(C)=O)C(=O)CCC1=CCOC1=O [GERALCIN B] | 5 µM | inactive | inactive | inactive | –
COc1cc(/C=C/C(=O)N(CCc2c[nH]c3ccc(O)cc23)N(CCc2c[nH]c3ccc(O)cc23)C(=O)/C=C/c2ccc(O)c(OC)c2)ccc1O [MONTAMINE] | – | – | – | – | 43.9 µM
CCCCCCN(NC(=O)CO)C(=O)CCC1=CCOC1=O | – | inactive | inactive | inactive | –
O=C(O)CCC1=CCOC1=O | – | inactive | inactive | inactive | –
